Measured values reported in patent publication EP0676201B1, “Use of a riminophenazine for treating MDR resistance” (priority 1994, dated 1995).
Converted amounts (≈) assume the structure as drawn. Where two headings read alike, the source gives them in different places.

How the values were obtained:
K562/MMB = experiment: MTT assay, 7-day exposure to riminophenazines alone or with fixed doxorubicin or vinblastine (Example 4); format: cell-based; conditions: Homo sapiens, K562, 168 h
Text: A third cell line (562/MMB) used was a MDR leukemia cell line selected in vitro by progressive exposure to increasing concentrations of vinblastine in order to increase P-glycoprotein expression. […] This cell line expresses high levels of P-glycoprotein as determined by flowcytometry using the monoclonal antibody (MRK 16) against this molecule.
The effects were examined of a 7-day exposure of selected compounds on the sensitivity of the cell line (K562/MMB) to the standard chemotherapeutic agents doxorubicin and vinblastine, using the MTT assay.
The cells were seeded at 1 x 10^4 cells per well in 96 well microlitre plates in a volume of 200 µl of RPMI 1640 medium containing 10 % fetal calf serum and incubated with doxorubicin (12.5 ng/ml) or vinblastine (3 ng/ml). The amounts of MDR modulators used were 0.03, 0.06, 0.125, 0.5, 1.0 and 2.0 µg/ml.
After incubation at 37 °C for 7 days, 20 µl MTT (i.e. 3-[4,5-dimethylthiazol-2-yl]2,5-diphenyl-tetrazolium bromide) at 5 mg/ml was added to each well and the plates incubated for a further 4 hours. The cells were washed with phosphate buffered saline and the intracellular formazan crystals solubilized with dimethylsulphoxide, and the absorbency measured spectrophotometrically at a test wavelength of 540 nm and a reference wavelength of 620 nm.

H69/LX4 [1] = experiment: MTT assay, 7-day exposure to riminophenazines alone or with fixed doxorubicin or vinblastine (Example 3); conditions: Homo sapiens, 168 h, read-out: cytotoxic activity: concentrations at which cytotoxic
Protocol: The effects were examined of a 7-day exposure of selected compounds on the sensitivity of the cell line (H69/P) and the resistance cell line (H69/LX4) to the standard chemotherapeutic agents doxorubicin and vinblastine, using the MTT assay.
After incubation at 37°C for 7 days, 20 µℓ MTT (ie 3-[4,5-dimethylthiazol-2-yl]-2,5-diphenyl-tetrazolium bromide) at 5 mg/ml was added to each well and the plates incubated for a further 4 hours. The cells were washed with phosphate buffered saline and the intracellular formazan crystals solubilized with dimethylsulphoxide, and the absorbence measured spectrophotometrically at a test wavelength of 540 nm and a reference wavelength of 620 nm. The mean percentage inhibition ± SEM of four experiments using the relevant controls was taken.

H69/LX4 [2] = experiment: [14C]-vinblastine accumulation in MDR cell line (Example 2); format: cell-based, human; conditions: 1 hour pretreatment; 250 µg/mℓ [14C]-vinblastine for 30 minutes
Protocol: The effect of riminophenazines on the accumulation of [^14C]-vinblastine was investigated. For these experiments, both of the above cell lines (H69/LX4 and H69/P) were prepared as described by Coley et al (Biochem. Pharmacal 38, 4467-4475 (1989)). After a 1 hour pretreatment with the MDR reversal agents, cells (1 x 10^6/mℓ) were exposed to 250 µg/mℓ [^14C]-vinblastine (1 µCi specific activity) for 30 minutes. […] The results are illustrated in Figure 3 of the accompanying drawings.

H69/P = experiment: MTT assay, 7-day exposure: sensitivity of parent cells to chemotherapeutic agents with or without MDR inhibitor (Example 1); format: cell-based, human; conditions: for fold sensitivity compared with the chemotherapeutic agent without the MDR inhibitor, B669 / fold sensitivity compared with the chemotherapeutic agent without the MDR inhibitor, Clofazimine (B663) / fold sensitivity compared with the chemotherapeutic agent without the MDR inhibitor, CsA: value in parenthesis; for fold sensitivity compared with the chemotherapeutic agent without the MDR inhibitor, CsA: with CsA 5 µg/ml; for IC50: Homo sapiens, 168 h
Text: (§1) A further test using no MDR inhibitor was used as a standard.

H69/LX4 [3] = experiment: MTT assay, 7-day exposure: sensitivity of resistant (MDR) cells to chemotherapeutic agents with or without MDR inhibitor (Example 1); format: cell-based; conditions: Homo sapiens, 168 h
Text: as §1
The cell lines used were human small cell lung cancer cell line HP69/P and a multi-drug resistant (MDR) sub-line H69/LX4, both of which were supplied by the MRC Clinical Oncology and Radiotherapeutics Unit, Hills Road, Cambridge, England. The maintenance of the cell lines and drug response assays was done as described by Twentyman et al in British Journal of Cancer Volume 65 pages 335-340. The H69/LX4 line was originally described by Twentyman et al in British Journal of Cancer Volume 53, pages 529-637 (1986).
The data in parenthesis represents fold sensitivity compared with the chemotherapeutic agent without the MDR inhibitor.

[4] = in the presence of doxorubicin (12 ng/ml), read-out: IC 50 of riminophenazine, Doxorubicin
[5] = in the presence of vinblastine (3 ng/ml), read-out: IC 50 of riminophenazine, Vinblastine
[6] = riminophenazine alone, mean of 2 experiments, read-out: IC 50 of riminophenazine, None
[7] = H69/P, with Clofazimine 1 µg/ml
[8] = read-out: IC50 of chemotherapeutic agent, MDR INHIBITOR CsA
[9] = H69/P, no MDR inhibitor, 7 day exposure, mean of 2 - 4 experiments, read-out: IC50 of chemotherapeutic agent, MDR INHIBITOR None
[10] = H69/P, with B669 0.5 µg/ml, 7 day exposure, read-out: IC50 of chemotherapeutic agent, MDR INHIBITOR B669
[11] = H69/P, with Clofazimine 1 µg/ml, 7 day exposure, read-out: IC50 of chemotherapeutic agent, MDR INHIBITOR Clofazimine (B663)
[12] = H69/LX4, no MDR inhibitor, 7 day exposure, mean of 2 - 4 experiments, read-out: IC50 of chemotherapeutic agent, MDR INHIBITOR None
[13] = H69/LX4, with B669 0.5 µg/ml, 7 day exposure, read-out: IC50 of chemotherapeutic agent, MDR INHIBITOR B669
[14] = H69/LX4, with Clofazimine 1 µg/ml, 7 day exposure, read-out: IC50 of chemotherapeutic agent, MDR INHIBITOR Clofazimine (B663)

IC50 (K562/MMB; [4]) | IC50 (K562/MMB; [6]) | Compound | IC50 (K562/MMB; [5]) | MCC (H69/LX4 [1]) | vinblastine accumulation in the MDR cell line (H69/LX4) (H69/LX4 [2]) | fold sensitivity compared with the chemotherapeutic agent without the MDR inhibitor, B669 (H69/P; H69/P, with B669 0.5 µg/ml) | fold sensitivity compared with the chemotherapeutic agent without the MDR inhibitor, Clofazimine (B663) (H69/P; [7]) | fold sensitivity compared with the chemotherapeutic agent without the MDR inhibitor, CsA (H69/P; H69/P) | IC50 (H69/P; [8]) | IC50 (H69/P; [9]) | IC50 (H69/P; [10]) | IC50 (H69/P; [11]) | IC50 (H69/LX4 [3]; [8]) | IC50 (H69/LX4 [3]; [12]) | IC50 (H69/LX4 [3]; [13]) | IC50 (H69/LX4 [3]; [14]) | IC50 (H69/P; read-out: IC50 of chemotherapeutic agent, MDR INHIBITOR B669) | IC50 (H69/P; read-out: IC50 of chemotherapeutic agent, MDR INHIBITOR Clofazimine (B663))
0.969 µg/mL | 2.86 µg/mL (≈ 4.04 µM) | CC1(C)CC(N=c2cc3n(-c4cc(Cl)c(Cl)c(Cl)c4)c4ccccc4nc-3cc2Nc2cc(Cl)c(Cl)c(Cl)c2)CC(C)(C)N1 [Compound B4169, N,5-bis(3,4,5-trichlorophenyl)-3,5-dihydro-3[(2',2',6',6'-tetramethyl-4-piperidyl)-imino]-2-phenazinamine] | 0.116 µg/mL | > 12.5 µg/mL | – | – | – | – | – | – | – | – | – | – | – | – | – | –
– | – | CN(Cc1cnc2nc(N)nc(N)c2n1)c1ccc(C(=O)N[C@@H](CCC(=O)O)C(=O)O)cc1 [Methotrexate] | – | – | – | 1.0 fold | 0.9 fold | 1.5 fold | 2.4 µg/mL (≈ 5.28 µM) | 3.5 µg/mL (≈ 7.7 µM) | 3.4 µg/mL (≈ 7.48 µM) | 3.7 µg/mL (≈ 8.14 µM) | 4.6 µg/mL (≈ 10.1 µM) | 3.2 µg/mL (≈ 7.04 µM) | 3.5 µg/mL (≈ 7.7 µM) | 4.4 µg/mL (≈ 9.68 µM) | – | –
0.069 µg/mL | 0.139 µg/mL (≈ 0.313 µM) | c1ccc(Nc2cc3nc4ccccc4n(-c4ccccc4)c-3cc2=NC2CCCCC2)cc1 [Compound B669] | – | – | significant enhancement | – | – | – | – | – | – | – | – | – | – | – | – | –
– | – | CO[C@@]12[C@H](COC(N)=O)C3=C(C(=O)C(C)=C(N)C3=O)N1C[C@@H]1N[C@@H]12 [Mitomycin C] | – | – | – | – | – | – | 0.009 µg/mL (≈ 0.0269 µM) | – | – | – | 0.08 µg/mL (≈ 0.239 µM) | – | 0.04 µg/mL (≈ 0.12 µM) | 0.06 µg/mL (≈ 0.179 µM) | 0.01 µg/mL (≈ 0.0299 µM) | 0.01 µg/mL (≈ 0.0299 µM)
– | – | COc1cccc2c1C(=O)c1c(O)c3c(c(O)c1C2=O)C[C@@](O)(C(=O)CO)C[C@@H]3O[C@H]1C[C@H](N)[C@H](O)[C@H](C)O1 [Doxorubicin] | – | – | – | 1.0 fold | 0.8 fold | 1.0 fold | 0.003 µg/mL (≈ 0.00552 µM) | 0.003 µg/mL (≈ 0.00552 µM) | 0.003 µg/mL (≈ 0.00552 µM) | 0.004 µg/mL (≈ 0.00736 µM) | 0.01 µg/mL (≈ 0.0184 µM) | 0.11 µg/mL (≈ 0.202 µM) | 0.016 µg/mL (≈ 0.0294 µM) | 0.01 µg/mL (≈ 0.0184 µM) | – | –

Compound | IC50 (K562/MMB; [4]) | IC50 (K562/MMB; [6]) | IC50 (K562/MMB; [5]) | MCC (H69/LX4 [1]) | vinblastine accumulation in the MDR cell line (H69/LX4) (H69/LX4 [2]) | fold sensitivity compared with the chemotherapeutic agent without the MDR inhibitor, B669 (H69/P; H69/P, with B669 0.5 µg/ml) | fold sensitivity compared with the chemotherapeutic agent without the MDR inhibitor, Clofazimine (B663) (H69/P; [7]) | fold sensitivity compared with the chemotherapeutic agent without the MDR inhibitor, CsA (H69/P; H69/P) | IC50 (H69/P; [8]) | IC50 (H69/P; [9]) | IC50 (H69/P; [10]) | IC50 (H69/P; [11]) | IC50 (H69/LX4 [3]; [8]) | IC50 (H69/LX4 [3]; [12]) | IC50 (H69/LX4 [3]; [13]) | IC50 (H69/LX4 [3]; [14]) | IC50 (H69/P; read-out: IC50 of chemotherapeutic agent, MDR INHIBITOR B669) | IC50 (H69/P; read-out: IC50 of chemotherapeutic agent, MDR INHIBITOR Clofazimine (B663))
CC(C)N=c1cc2n(-c3ccc(Cl)cc3)c3ccccc3nc-2cc1Nc1ccc(Cl)cc1 [Compound B663, N,5-bis-(4-chlorophenyl)-3,5-dihydro-3-[(1-methylethyl)imino]-2-phenazinamine] | 0.135 µg/mL | 0.225 µg/mL (≈ 0.475 µM) | < 0.05 µg/mL | – | significant enhancement | – | – | – | – | – | – | – | – | – | – | – | – | –
